Columns and labels:
[1] = test system: pathogenic Th clones from SNF1 mice; assay: Stimulation of nucleosome-specific pathogenic Th clones from SNF1 mice by eluted/synthetic peptides; type: cell-based, mouse; conditions: A20 or splenic B+Mφ as APC
Protocol: Fresh splenic, CD4^+ T cells (5×10^5/well) were co-cultured in triplicate wells at an initial concentration of 5×10^5 cells per well, with 10^6 cells per well of either irradiated B+Mφ or mitomycin-C treated A20 APC. Varying concentrations of either control or test peptides were added and the cultures were adjusted to 200 microliters final volume of HL-1 serum-free medium (Hycor Biomedical Inc., Irvine, Calif.) cultures were incubated for 96 hours in flat bottom 96-well plates, and at 18 hours prior to harvesting the cells, 1 microcurie of 3H-Thymidine was added to each well. The incorporated radioactivity was measured by scintillation counting. The Stimulation Index (SI) was calculated by dividing the mean counts per minute (cpm) incorporated in co-cultures of T cells and APC with test peptide by the mean cpm incorporated in control peptide co-cultures. In the case of cytokine assays, experiments were carried out as described for the proliferation assays except that the culture supernatants were removed from duplicate co-culture wells after 24-46 hours of incubation and cytokine assays were performed.
An aliquot of 50 microliters from each HPLC fraction was assayed for stimulating ability as described above. Four characterized Th clones were used as indicators of cytokine secretion (IL-2 and/or IL-4) in response to the peptide fractions, using A20 or splenic B+Mψ as APCs (Adams, et al., 1991, Proc. Natl. Acad. Sci. USA 88:11271-11275; Shi, et al., 1998, J. Exp. Med. 187:367-378). […] Only two out of one hundred fractions tested were able to stimulate Th cell clones. […] The latter was further separated as described, and tested for active fractions of HPLC purified peptides.. Three naturally processed and presented, stimulatory epitopes were identified using these procedures. The sequences of the peptides are as follows: SQKEEEEGAQREKE (EP-1, SEQ ID NO: 23); DWMEEEHGAQREKE (EP-2, SEQ ID NO: 24); and […] (EP-3, or H522-42, SEQ ID NO: 25). The first two peptides were homologous to sequences in a transcription factor, BRN-3, which is identical in chicken, mice and humans (GenBank). […] EP-1 is highly homologous to EP-2, but it also matched a sequence in cytomegalovirus envelope protein at aa position 57-70. Most likely these peptides are derived from some transcription factor in the chromatin that was incubated with the APC. The third sequence (EP-3) was derived from histone H5 (aa position 22-42) in chicken nucleosome, which is homologous to histone H1 sequence of mice and humans at amino acid position 22-42 ([…], SEQ ID NO:26). […] Therefore, the mouse H122-42 is the autoantigenic peptide in mice and is also referred to herein as EP-3. Nested sequences and unrelated sequences that were obtained in the active fractions from the eluates were also synthesized and re-tested.

[2] = test system: SNF1 mice; assay: Acceleration of SLE-associated nephritis by immunization with eluted peptides in adjuvant; type: in vivo, mouse; conditions: for onset/rate of disease relative to control group (CFA alone or OVA peptide in CFA): immunization from 12 weeks
Source text: The animals received three more injections at two weeks interval with 50 micrograms of either an eluted peptide or the control peptide absorbed on alum (Pierce Chemical Co., Rockford, Ill.).

[3] = test system: SNF1 mice; assay: IgG anti-nuclear autoantibody and total IgG levels in sera of peptide-injected mice (ELISA); type: in vivo, mouse; conditions: sera 1:400
Protocol: (§1) Long-term experiments used 12 week-old, autoimmune, but pre-nephritic SNF1 female mice. Nine mice per peptide test group were injected intravenously with either a saline (solution) or a peptide solution comprising saline and 300 micrograms of one of H2B10-33, H416-39, and H471-94. Each mouse received three subsequent injections of either the saline solution or one of the peptide solutions at two-week intervals. The mice were monitored weekly for proteinuria using an Albustix kit (VWR Scientific, Chicago, Ill.), and sacrificed upon the development of persistent proteinuria. Persistent protenuria was identified as an amount of protein in urine that is equivalent to or greater than 300 milligrams per deciliter, and is a primary indication of severe kidney disease and damage associated with nephritis. Sera were collected from each mouse and the IgG anti-nuclear autoantibodies determined. Blood urea nitrogen (BUN) was measured by Azostix (Miles, Ekhart, Ind.). Immune complex deposition and glomerulonephritis in the kidney were detected by staining with Hematoxylin and Eosin and anti-mouse Ig. These procedures were carried out as previously described (Mohan et al., 1993, J. Exp. Med. 177:1367; Mohan et al., 1995, J. Immunol. 154:1470; Eastcott et al., 1983, J. Immunol. 131:2232; Adams et al., 1991, Proc. Natl. Acad. Sci. USA 88:11271; Kalled et al., 1998, J. Immunol. 160:2158; Gaynor et al., 1997, Proc. Natl. Acad. Sci. USA 94:1955).
(§2) Levels of IgG class autoantibodies specific for single-stranded DNA (ssDNA), double-stranded DNA (dsDNA), histones, and nucleosomes (i.e. histone-DNA complexes), in culture supernatants or serum, were estimated using an enzyme-linked immunosorbent assay (ELISA). Anti-DNA mAbs 564 and 205 were used to generate standard curves as previously described (Mohan et al., 1993, J. Exp. Med. 177:1367; Kaliyaperumal et al., 1996, J. Exp. Med. 183:2459; Mohan et al., 1995, J. Immunol. 154:1470; Adams et al., 1991, Proc. Natl. Acad. Sci. USA 88:11271). Sera were diluted 1:400 and heat-inactivated before use according to standard procedures. Sera from normal SWR mice were used as the negative control. Total polyclonal IgG levels were also measured by ELISA as previously described (Mohan et al., 1993, J. Exp. Med. 177:1367; Mohan et al., 1995, J. Immunol. 154:1470; Adams et al., 1991, Proc. Natl. Acad. Sci. USA 88:11271).

[4] = test system: SNF1 mice; assay: Short-term tolerance experiments: grading of lupus nephritis at sacrifice; type: in vivo, mouse; conditions: short-term batch, at sacrifice two weeks after last injection
Protocol: Short-term experiments were conducted to test the early immunological consequences of tolerance therapy. Twelve week old SNF1 mice were injected once a week for four weeks with either a saline solution or a peptide solution comprising saline and 300 micrograms of one of the above described peptides. Mice were sacrificed at two weeks after the last injection. Presence of autoimmune T and B cells was analyzed and renal lesions were graded.

[5] = test system: SNF1 mice; assay: Brief therapy with nucleosomal histone peptides (long-term experiments): incidence of severe nephritis; type: in vivo, mouse
Protocol: as §1

[6] = test system: SNF1 mice; assay: Chronic therapy of established glomerulonephritis with nucleosomal peptides; type: in vivo, mouse
Protocol: Six mice per group were injected intraperitoneally once each month with either a saline solution or a peptide solution comprising saline and 300 micrograms of one of the identified peptides. The endpoint of these experiments was the development of moribund state due to renal failure.

[7] = test system: CD4+ T cells; assay: Helper assay: CD4+ T cells from peptide-injected mice co-cultured with B cells from unmanipulated SNF1 mice; type: cell-based, mouse
Source text: as §2
T-cells from peptide-treated mice used in the short-term experiments were co-cultured with splenic B cells from unmanipulated mice. Conversely, T cells from unmanipulated SNF1 mice (i.e. control mice) were co-cultured with splenic B cells from tolerized (i.e. peptide-injected) mice. Each of the cell types was seeded in 24-well plates at an initial concentration of 2.5×10^6 cells per well. Cultures were maintained for 7 days, as previously described (Datta et al., 1987, J. Exp. Med. 165:1252; Sainis and Datta, 1988, J. Immunol. 140:2215). B cells from unmanipulated or tolerized animals were cultured alone to measure baseline autoantibody production. Culture supernatants were collected, freeze-thawed, and assayed by ELISA for antibodies against ssDNA, dsDNA, histones and nucleosomes. For studies involving stimulation of B cells by soluble CD40 ligand, CD40L-CD8 fusion protein (Wortis et al., 1995, Proc. Natl. Acad. Sci. USA 92:3348) was added to either the co-culture wells or the wells with B cells alone and maintained in the medium for the entire 7-day culture period.

[8] = test system: CD4+ T cell clone DD2; assay: IL-2 production by lupus Th cell clone DD2 in response to histone peptides; type: cell-based, human; conditions: for stimulation of DD2: autologous EBV-B cells pulsed with peptide as APC
Protocol: Short-term T cell lines were rapidly thawed from liquid nitrogen and expanded in the presence of plate-bound anti-CD3 mAb, anti-CD28 mAb, and rIL-2 (20 units per milliliter). The expanded cells were transferred to fresh culture wells and rested by incubating in fresh medium for 10 to 14 days. For stimulation assays, 96 well plates were coated with 2 micrograms per milliliter of goat anti-mouse IgG antibodies overnight at 37° C. After washing the plates twice with Dulbecco's phosphate-buffered saline (dPBS), autologous and previously irradiated (3,000 rad) EBV-B cells (APC) were first added to each well at a concentration of 1×10^5 cells per well. The cells (APC) were cultured together with either a core histone peptide or a control peptide for 6 hours in HL-1 serum free medium (Bio Whittaker, Maryland). This procedure was followed by the addition to each well of CD4^+ T cells from the short-term lines at a concentration of 1×10^5 cells per well, and the addition of 0.5 micrograms per milliliter of a mouse monoclonal antibody (mAb) to human CD28. The final volume of the cultures was 200 microliters per well. Cells were co-cultured for 24 hours at 37° C. One-half the volume of supernatant was collected from each well for ELISA analysis of interleukin levels. Fresh medium (100 microliters) was added to cells, and the cells were incubated an additional 48 hours. [^3H] thymidine was added, and the cultures were incubated an additional 18 hours. Incorporated radioactivity was measured to quantitate T cell proliferation as described previously (Desai-Mehta et al., 1995, J. Clin. Invest. 95:53 1-541). HLA class II dependence of antigen-specific responses by the CD4^+ T cells was determined by adding to the co-cultures a blocking antibody from a panel of mAb to HLA class II molecules, as described previously (Desai-Mehta et al., 1995, J. Clin. Invest. 95:53 1-541). […]
IL-2 secreted by CD4^+ T cells in short term experiments was measured using an ELISA. […]

[9] = test system: short-term CD4+ T cell lines; assay: IL-2 production by short-term CD4+ T cell lines in response to histone peptides (pepscan); type: cell-based, human
Protocol: Short-term T cell lines were rapidly thawed from liquid nitrogen and expanded in the presence of plate-bound anti-CD3 mAb, anti-CD28 mAb, and rIL-2 (20 units per milliliter). The expanded cells were transferred to fresh culture wells and rested by incubating in fresh medium for 10 to 14 days. For stimulation assays, 96 well plates were coated with 2 micrograms per milliliter of goat anti-mouse IgG antibodies overnight at 37° C. After washing the plates twice with Dulbecco's phosphate-buffered saline (dPBS), autologous and previously irradiated (3,000 rad) EBV-B cells (APC) were first added to each well at a concentration of 1×10^5 cells per well. The cells (APC) were cultured together with either a core histone peptide or a control peptide for 6 hours in HL-1 serum free medium (Bio Whittaker, Maryland). This procedure was followed by the addition to each well of CD4^+ T cells from the short-term lines at a concentration of 1×10^5 cells per well, and the addition of 0.5 micrograms per milliliter of a mouse monoclonal antibody (mAb) to human CD28. The final volume of the cultures was 200 microliters per well. Cells were co-cultured for 24 hours at 37° C. One-half the volume of supernatant was collected from each well for ELISA analysis of interleukin levels. Fresh medium (100 microliters) was added to cells, and the cells were incubated an additional 48 hours. [^3H] thymidine was added, and the cultures were incubated an additional 18 hours. Incorporated radioactivity was measured to quantitate T cell proliferation as described previously (Desai-Mehta et al., 1995, J. Clin. Invest. 95:53 1-541). HLA class II dependence of antigen-specific responses by the CD4^+ T cells was determined by adding to the co-cultures a blocking antibody from a panel of mAb to HLA class II molecules, as described previously (Desai-Mehta et al., 1995, J. Clin. Invest. 95:53 1-541).
IL-2 secreted by CD4^+ T cells in short term experiments was measured using an ELISA. Capture and biotinylated antibody pairs directed at human IL-2 and standards for use therein were purchased from PharMingen. […]

DWMEEEHGAQREKE (DWMEEEEGAQREKE; Histone fragment) [EP-2]
stimulation of pathogenic Th clones [1]: stimulatory | mice developed disease ([2]; by 20 weeks of age): 60% | onset/rate of disease relative to control group (CFA alone or OVA peptide in CFA) [2]: developed severe nephritis earlier

H2B10-33: histone 2B protein (H2B) amino acids 10-33
serum anti-dsDNA antibody level ([3]; at 36 weeks of age, control 26±3.2): 14.0±3.2 units | serum anti-dsDNA antibody level ([3]; at the start of treatment (12 weeks), control 5.5±0.3): 7.7±0.9 units | Percent Incidence, Grading of Lupus Nephritis 1+ [4]: 66.6 | Percent Incidence, Grading of Lupus Nephritis 2+ [4]: 33.3 | incidence of severe nephritis ([5]; at 28 weeks of age, 300 micrograms i.v., four injections at two-week intervals from 12 weeks): did not develop disease | incidence of severe nephritis ([5]; at 36-38 weeks of age, control 88.8%): 33.3% | survival ([6]; by 26 months age): only one mouse in the H2B10-33 group survived | mice alive ([6]; two months after start of treatment (all controls dead), 300 micrograms i.p. monthly, 18-month old mice): 66.6% | reduction of anti-ssDNA antibody production relative to control group ([7]; T cells from treated mice + B cells from unmanipulated mice): approximately 55% | decrease in anti-dsDNA antibody production relative to control group ([7]; T cells from treated mice + B cells from unmanipulated mice, 7 days): five fold decrease | increase in help for anti-dsDNA antibody production following addition of rIL-2 ([7]; rIL-2 added at beginning of 7-day culture): did not exhibit any increase

H355-69: 15-mer nucleosomal histone H3 peptide, positions 55-69 (QKSTELLIRKLPFQR; UniProt P68431 56-70, looked up, fragment)
stimulation of DD2 [8]: stimulated DD2 very weakly

H383-97: H3 peptide used as additional background control, partly within a stimulatory region in H3 (RFQSSAVMALQEACE; UniProt P68431 84-98, looked up, fragment)
recognition by / response of lupus T cell lines ([9]; short-term lines from 10 lupus patients): not recognized by any of the T-cell lines or clone DD2 | stimulation of DD2 [8]: not recognized by any of the T-cell lines or clone DD2

H416-30: 15-mer histone H4 peptide, positions 16-30
IL-2 production response, percentage of maximal response stimulated by anti-CD3 mAb ([9]; average of 10 lupus T cell lines, baseline 22%): 23±2.6%

H449-63: histone peptide of H4, positions 49-63 (LIYEETRGVLKVFLE)
HLA class II dependence of peptide presentation ([9]; short-term T cell line L-EB, autologous EBV-B cells, blocking mAb): inhibited mainly by anti-DR mAb

SQKEEEEGAQREKE (Histone fragment) [EP-1]
stimulation of pathogenic Th clones [1]: stimulatory | onset/rate of disease relative to control group (CFA alone or OVA peptide in CFA) [2]: did not result in any increase in the rate of disease

anti-CD3: Anti-CD3 antibody (mAb) produced by hybridoma OKT3, positive control stimulus [reference compound]
IL-2 production by T cell clone DD2 ([8]; background with APC without peptide 132): 554 picograms per milliliter

Reference: patent US6468537B1, “Localization of major peptide autoepitopes for nucleosome specific T cells of systemic lupus erythematosus” (The Board of Trustees of Northwestern University, priority 1999, dated 2002)
